Results reported in patent US5849736A, “Isoxazoline and isoxazole fibrinogen receptor antagonists” (The DuPont Merck Pharmaceutical Company, priority 1995, dated 1998).
Counter-ions that a name gives are not always drawn. Like-named read-outs stand apart in the source and are kept apart here.

System: platelet aggregation in human platelet rich plasma (PRP)
Assay: Platelet Aggregation Assay (platelet rich plasma, with or without esterase pretreatment)
Assay type: cell-based
Description: Venous blood was obtained from the arm of a healthy human donor who was drug-free and aspirin-free for at least two weeks prior to blood collection. Blood was collected into 10 mL citrated Vacutainer tubes. The blood was centrifuged for 15 minutes at 150×g at room temperature, and platelet-rich plasma (PRP) was removed. The remaining blood was centrifuged for 15 minutes at 1500×g at room temperature, and platelet-poor plasma (PPP) was removed. Samples were assayed on a aggregometer (PAP-4 Platelet Aggregation Profiler), using PPP as the blank (100% transmittance). 200 μL of PRP was added to each micro test tube, and transmittance was set to 0%. 20 μL of various agonists (ADP, collagen, arachidonate, epinephrine, thrombin) were added to each tube, and the aggregation profiles were plotted (% transmittance versus time). The results are expressed as % inhibition of agonist-induced platelet aggregation. For the IC50 evaluation, the test compounds were added at various concentrations prior to the activation of the platelets.
Ester prodrugs were preincubated (10^-3 M F.C.) with 100 IU/mL Porcine liver esterase (Sigma Chemical Co., St. Louis, Mo., #E-3128) for 2 hours at 37° C. Aliquots are then diluted in 0.1M Tris, pH 7.4, to the desired concentrations. Aliquots of 20 μl of the esterase pretreated prodrugs are added to 200 μl of human platelet rich plasma. Samples were placed in platelet profiler (aggregometer) for 8 minutes at 37° C., followed by the addition of 100 μM Adenosine Diphosphate, (Sigma Chemical Co., St. Louis, Mo., #A-6521), to induce platelet aggregation. Platelet aggregation was allowed to proceed for 5 minutes. Percent inhibition is calculated using percent aggregation in the presence of the test compound divided by percent aggregation of control, times 100. This value is subtracted from 100, yielding percent inhibition. Calculation of IC50 is performed on a Texas Instruments TI59 with an IC50 program.
Table A below sets forth the antiplatelet activity of representative compounds of the present invention. The indicated compounds were tested for their ability to inhibit platelet aggregation (using platelet rich plasma (PRP)). The IC50 value (the concentration of antagonist which inhibits platelet aggregation by 50% relative to a control lacking the antagonist) is shown. In Table 5 the IC50 values are expressed as: +++=IC50 of <10 μM; ++=IC50 of 10-50 μM; +=IC50 of 50-100 μM (μM=micromolar).

[1] = Platelet, preincubated with 100 IU/mL porcine liver esterase 2 hours at 37° C., 100 μM ADP, read-out: Platelet Aggregation Assay IC50 (with esterase)
[2] = Platelet, without esterase, read-out: Platelet Aggregation Assay IC50 (without esterase)
[3] = Platelet, without esterase, given as a bound, not a class symbol, read-out: Platelet Aggregation Assay IC50 (without esterase)
[4] = preincubated with 100 IU/mL porcine liver esterase 2 hours at 37° C., 100 μM ADP, read-out: Platelet Aggregation Assay IC50 (with esterase)

In the case of `CCCC[C@H](CC(=O)OC)NC(=O)CC1CC(c2ccc(C(=N)N)cc2)=NO1` (stereo partly drawn) [Example 344, Methyl 3(R)-{5(R,S)-N-[3-(4-Amidinophenyl)isoxazolin-5-ylacetyl]amino}heptanoate], the IC50 [1] is reported as < 10 µM.

In the case of `Cc1cccc(S(=O)(=O)NC(CNC(=O)Cc2cc(-c3ccc(C(=N)N)cc3)no2)C(=O)O)c1` (centres unmarked) [Example 798], the IC50 [1] is reported as < 10 µM.

`CC(C)COC(=O)NC(CNC(=O)CC1CC(c2ccc(C(=N)N)cc2)=NO1)C(=O)O` (centres unmarked) [Example 532] was tested, and the IC50 [2] was < 10 µM.

`COC(=O)CC1C(=O)NCCN1C(=O)CC1CC(c2ccc(C(=N)N)cc2)=NO1` (racemic) [Example 400, 3-(R,S)-(Methoxy-2-oxoethyl)-4-{5-(R,S)-N-[3-(4-amidinophenyl)isoxazolin-5-ylacetyl]}piperazin-2-one] was tested, and the IC50 [2] was < 10 µM.

For `COC(=O)CCC(CC(=O)OC)NC(=O)CC1CC(c2ccc(C(=N)N)cc2)=NO1` (racemic) [Example 368, trifluoroacetic acid salt], the IC50 [1] was < 10 µM.

`COC(=O)CC(NC(=O)CC1CC(c2ccc(C(=N)N)cc2)=NO1)C(=O)NCCc1ccccc1` (centres unmarked) [Example 452] was tested, and the IC50 [1] was < 10 µM.

With `N=C(N)NCCCC1CC(C(=O)NCC(NC(=O)OCc2ccccc2)C(=O)O)=NO1` (centres unmarked) [Example 1284] the IC50 [1] was < 10 µM.

In the case of `N=C(N)c1ccc(C2=NOC(CC(=O)NC[C@H](NC(=O)OCc3ccccc3)C(=O)O)C2)cc1` (stereo partly drawn) [Example 276, N^2 -Cbz-N^3-[3-(4-amidinophenyl)isoxazolin-5(R, S) -ylacetyl]-L-2,3-diaminopropionic acid TFA salt], the IC50 [1] is reported as < 10 µM.

`COC(=O)CC(CC(=O)OC)NC(=O)CC1CC(c2ccc(C(=N)N)cc2)=NO1` (racemic) [Example 365, Methyl {5(R,S)-N-[3-(4-amidinophenyl)isoxazolin-5-ylacetyl]amino}-4-(methoxycarbonyl)butanoate . trifluoroacetic acid salt] was tested, and the IC50 [1] was < 10 µM.

`COC(=O)[C@H](CNC(=O)CC1CC(c2ccc(C(=N)N)cn2)=NO1)NS(=O)(=O)c1cccc(C)c1` (some centres unmarked) [Example 514, Methyl N^2-(m-toluenesulfonyl)-N^3-3-(3-amidinopyrid-6-yl)isoxazolin-5-ylacetyl]-S-2,3-diaminopropionate hydrochloric acid salt] was tested, and the IC50 [1] was < 10 µM.

`COC(=O)C1(CC(=O)O)CC(c2ccc(OCCC3CCNCC3)cc2)=NO1` (racemic) [Example 33, Trifluoroacetic Acid Salt] was tested, and the IC50 [3] was > 100 µM.

In the case of `Cc1noc(C)c1S(=O)(=O)N[C@@H](CNC(=O)C[C@H]1CC(c2ccc(C(=N)N)cc2)=NO1)C(=O)O` [Example 2104], the IC50 [1] is reported as < 10 µM.

`CCOC(=O)CC(NC(=O)CC1CC(c2ccc(C(=N)N)cc2)=NO1)C(=O)OCC` (centres unmarked) [Example 439] was tested, and the IC50 [1] was < 10 µM.

`O=C(O)CCC1CC(c2ccc(OCC3CCNCC3)cc2)=NO1` (racemic) [Example 6, 3-(3-[4-(Piperidin-4-ylmethoxy)phenyl]-(5R,S)-isoxazolin-5-yl)propionic Acid, Trifluoroacetic Acid Salt] was tested, and the IC50 [2] was < 10 µM.

`COC(=O)C(CNC(=O)CC1CC(c2ccc(C(=N)N)cc2)=NO1)NS(=O)(=O)c1ccc(-c2ccccc2)cc1` (centres unmarked) [Example 546] was tested, and the IC50 [1] was < 10 µM.

With `COC(=O)C(CNC(=O)CC1CC(c2ccc(C(=N)N)cc2)=NO1)NS(=O)(=O)c1ccc(C#N)cc1` (centres unmarked) [Example 486] the IC50 [1] was < 10 µM.

`O=C(O)CC1CC(c2ccc(OCC3CCNCC3)cc2)=NO1` (racemic) [Example 7, 3-[4-(Piperidin-4-ylmethoxy)phenyl]-(5R,S)-isoxazolin-5-ylacetic Acid, Trifluoroacetic Acid Salt] was tested, and the IC50 [3] was > 100 µM.

With `CCCS(=O)(=O)NC(CNC(=O)CC1CC(c2ccc(C(=N)N)cc2)=NO1)C(=O)OC` (centres unmarked) [Example 490] the IC50 [1] was < 10 µM.

In the case of `CCCCS(=O)(=O)NC(CC1CC(c2ccc(OCC3CCNCC3)cc2)=NO1)C(=O)O` (single isomer, unassigned) [9 (isomer A)], the IC50 [2] is reported as < 10 µM.

`COC(=O)[C@H](CNC(=O)CC1CC(c2ccc(C(=N)N)nc2)=NO1)NS(=O)(=O)c1cccc(C)c1` (some centres unmarked) [Example 516, Methyl N^2-(m-toluenesulfonyl)-N^3-[3-(2-amidinopyrid-5-yl)isoxazolin-5-ylacetyl]-S-2,3-diaminopropionate hydrochloric acid salt] was tested, and the IC50 [1] was < 10 µM.

With `N=C(N)c1ccc(C2=NOC(CC(=O)NCC(NC(=O)OCCC3CC3)C(=O)O)C2)cc1` (centres unmarked) [Example 534] the IC50 [2] was < 10 µM.

`COC(=O)[C@H](CNC(=O)CC1CC(c2ccc(C(=N)N)cc2)=NO1)NS(=O)(=O)c1ccc(C)cc1` (some centres unmarked) [Example 327] was tested, and the IC50 [1] was < 10 µM.

With `CCOC(=O)CC1CCCCN1C(=O)CC1CC(c2ccc(C(=N)N)cc2)=NO1` (centres unmarked) [Example 413] the IC50 [1] was < 10 µM.

With `CCCCOC(=O)NC(CNC(=O)CC1CC(CCCC2CCNCC2)=NO1)C(=O)OC` (centres unmarked) [Example 616] the IC50 [2] was < 10 µM.

With `COC(=O)C(CNC(=O)Cc1cc(-c2ccc(C(=N)N)cc2)no1)NC(=O)OCc1ccccc1` (centres unmarked) [Example 727] the IC50 [1] was < 10 µM.

`N=C(N)NCCCCCC1=NOC(CC(=O)NCC(NC(=O)OCc2ccccc2)C(=O)O)C1` (centres unmarked) [Example 2110] was tested, and the IC50 [1] was < 10 µM.

`COC(=O)CC(NC(=O)CC1CC(c2ccc(C(=N)N)cc2)=NO1)C(=O)N1CCN(Cc2ccccc2)CC1` (centres unmarked) [Example 455] was tested, and the IC50 [1] was < 10 µM.

`COC(=O)C(CNC(=O)CC1CC(c2ccc(C(=N)N)cc2)=NO1)NS(=O)(=O)c1ccccn1` (centres unmarked) [Example 495] was tested, and the IC50 [1] was < 10 µM.

`CCCCOC(=O)N[C@@H](CNC(=O)CC1CC(c2ccc(NC(=N)N)cc2)=NO1)C(=O)OC` (stereo partly drawn) [Example 602, Methyl N^2-n-butyloxycarbonyl-N^3-[3-(4-guanidinophenyl)isoxazolin-5-(R,S)-ylacetyl]-(S)-2,3-diaminopropionate, trifluoroacetic acid salt] was tested, and the IC50 [1] was < 10 µM.

For `CCCCOc1ccc(S(=O)(=O)NC(CNC(=O)CC2CC(c3ccc(C(=N)N)cc3)=NO2)C(=O)OC)cc1` (centres unmarked) [Example 471], the IC50 [1] was < 10 µM.

With `COC(=O)C(CNC(=O)CC1CC(c2ccc(C(=N)N)cc2)=NO1)NC(=O)Nc1ccc(F)cc1` (centres unmarked) [Example 518] the IC50 [1] was < 10 µM.

`COC(=O)C(CNC(=O)CC1CC(c2ccc(C(=N)N)cc2)=NO1)NS(=O)(=O)c1ccc(-c2ccccn2)s1` (centres unmarked) [Example 552] was tested, and the IC50 [1] was < 10 µM.

With `N=C(N)c1ccc(C2=NOC(CC(=O)N3CCCCC3CC(=O)O)C2)cc1` [Example 375, 2-(R,S)-2-Carboxymethyl-1-{5-(R,S)-N-[3-(4-amidinophenyl)isoxazolin-5-ylacetyl]}piperidine] the IC50 [2] was < 10 µM.

In the case of `CCCCNC(=N)c1ccc(C2=NOC(CC(=O)NCC(NS(=O)(=O)c3ccccc3C)C(=O)O)C2)cc1` (centres unmarked) [Example 2114], the IC50 [1] is reported as < 10 µM.

For `N=C(N)NCCC1=NOC(CCC(=O)NCC(NC(=O)OCc2ccccc2)C(=O)O)C1` (centres unmarked) [Example 2400], the IC50 [1] was < 10 µM.

For `N=C(N)NCCCC1=NOC(CCC(=O)NCC(NC(=O)OCc2ccccc2)C(=O)O)C1` (centres unmarked) [Example 2403], the IC50 [1] was < 10 µM.

With `CCc1ccc(S(=O)(=O)NC(CNC(=O)CC2CC(c3ccc(C(=N)N)cc3)=NO2)C(=O)OC)cc1` (centres unmarked) [Example 488] the IC50 [1] was < 10 µM.

`COC(=O)C[C@@H](Cc1ccccc1)NC(=O)CC1CC(c2ccc(C(=N)N)cc2)=NO1` (stereo partly drawn) [119A (3R)] was tested, and the IC50 [4] was < 10 µM.

With `CCCCS(=O)(=O)NCC(CC(=O)OC)NC(=O)CC1CC(c2ccc(C(=N)N)cc2)=NO1` (racemic) [Example 362, Methyl 3(R,S)-{5(R,S)-N-[3-(4-amidinophenyl)isoxazolin-5-ylacetyl]amino}-4-(n-butylsulfonamido)butanoate . trifluoroacetic acid salt] the IC50 [1] was < 10 µM.

With `CCCCNS(=O)(=O)NC(CNC(=O)CC1CC(c2ccc(C(=N)N)cc2)=NO1)C(=O)OC` (centres unmarked) [Example 504] the IC50 [1] was < 10 µM.

In the case of `CCCCS(=O)(=O)NC(CC1CC(c2ccc(OCC3CCNCC3)cc2)=NO1)C(=O)O` (single isomer, unassigned) [9 (isomer B), 3-(3-[4-{(Piperidin-4-yl)methoxy}phenyl]isoxazolin-5-yl{[butanesulfonyl]amino}]propionic Acid, Trifluoroacetic Acid Salt (Less Polar Diastereomer)], the IC50 (without esterase, read-out: Platelet Aggregation Assay IC50 (without esterase)) is reported as < 10 µM.

For `COC(=O)C(CNC(=O)CC1CC(c2ccc(C(=N)N)cc2)=NO1)NS(=O)(=O)c1sc2ccccc2c1C` (centres unmarked) [Example 556], the IC50 [1] was < 10 µM.

`N=C(N)c1ccc(C2=NOC(CC(=O)NCC(NS(=O)(=O)c3ccc(S(=O)(=O)c4ccccc4)s3)C(=O)O)C2)cc1` (centres unmarked) [Example 2119] was tested, and the IC50 [1] was < 10 µM.

`COC(=O)[C@H](CNC(=O)CC1CC(c2ccc(C(=N)N)cc2)=NO1)NC(=O)Nc1ccccc1` (some centres unmarked) [Example 517] was tested, and the IC50 [4] was < 10 µM.
